Patent US5684020A, “Piperazine, piperidine and 1,2,5,6-tetrahydropyridine” (Adir et Compagnie, priority 1995, dated 1997)

Experiments:
schizophrenia patients = conditions: Davis et al., 1983; cited from earlier work
dopamine turnover = experiment: Dopamine turnover (DOPAC/dopamine ratio) in rat brain structures; assay type: in vivo, Male Wistar rats; conditions: regions studied: frontal cortex, nucleus accumbens, olfactory tubercles, striatum
Protocol: by dopamine synthesis (turnover) studies in the following structures: frontal cortex (mesocortical pathway), nucleus accumbens and olfactory tubercle (mesolimbic pathway), striatum (nigrostriatal pathway). The functional dopaminergic antagonists cause an increase in the synthesis of dopamine in those structures.
Male Wistar rats (Iffa Credo, Illskirchen France) weighing 250 to 280 g are kept in a 12h/12h light/darkness cycle (light switched on at 7.30 a.m.). They have free access to water and food; the laboratory temperature is 21°±1° C. and the humidity is 60±5%.
Dopamine turnover: The effect of the products of the invention and the reference product on dopamine turnover is determined after subcutaneous injection. After a period of 30 minutes, the rats are decapitated and the brain is dissected in order to extract the striatum, the nucleus accumbens, the frontal cortex and the olfactory tubercles. The tissues are homogenised in 500 μl of HClO4 0.1M containing 0.5% Na2 S2 O5 and 0.5% EDTA Na2 and centrifuged at 15,000 g for 15 minutes at 4° C. The supernatants are diluted in the mobile phase and injected into an HPLC column (Hypersil ODS 5 μm, C18, 150×4.6mm, Thermo Separation Products, Les Ulis, France) thermostatically controlled at 25° C. […]

[1] = Induction of catalepsy in the rat; conditions: in vivo, sc, 1 hour after injection, 50% of maximum 30 seconds
Text: 3. Induction of catalepsy in the rat
The acute administration of "typical" antipsychotics to an animal induces catalepsy, that is to say the maintenance of the animal in an often abnormal posture which has been imposed upon it by the experimenter (Waldmeier, 1979). The evaluation of the cataleptogenic properties of a product in the rat thus makes it possible to know whether that product, administered to man, will or will not risk causing an extrapyramidal-type syndrome.
Test: The animals are placed in individual cages and food is withdrawn the day before the test but water taken as desired. The catalepsy test comprises placing each rear paw of the animal on the front paw of the same side and measuring the time (seconds) that the animal remains in that "crossed paws" position (maximum 30 seconds). Each animal is subjected to 3 successive tests (one every two minutes), the animal being removed from its cage and placed on the work surface. Those tests are carded out 1 hour after the subcutaneous injection or oral administration of the product or its solvent. The average value of 3 tests represents the duration of the catalepsy (seconds) for each animal. There are 5 or 6 rats per experimental group.
Statistical analysis: The effect of the product on the duration of the catalepsy is evaluated by an ANOVA, followed by a Dunnett's test, with the probability p<0.05. […]

[2] = system: Verticalisation induced by apomorphine; experiment: Verticalisation induced by apomorphine in the mouse; assay type: in vivo; conditions: sc, 0.5 h, s.c., apomorphine 0.75 mg/kg s.c. 30 minutes later, read-out: ID50 (dose reducing by half the average verticalisation score)
Protocol: 1. Verticalisation induced by apomorphine (0.75 mg/kg, s.c.) in the mouse
This test, described by Protais et al (Psychopharmacologie, 1976, 50, 1-6) allows the evaluation of the dopaminergic antagonist activity of possible antipsychotic products. A mouse to which apomorphine has been administered and which has been placed in a cage comprising vertical bars, remains most of the time immobile at the top of the cage clinging by its 4 paws to the bars. That verticalisation behaviour is blocked if a dopaminergic antagonist product has been administered before the apomorphine.
Test: After the subcutaneous (s.c.) administration of the product or solvent (control group), the mouse is placed in a cylindrical barred cage (14 cm diam.×14 cm h) having vertical bars. Thirty minutes later, the animal receives the apomorphine dose (0.75 mg/kg, s.c.). […]
Statistical analysis: The effect of the product on verticalisation is evaluated by comparing the scores obtained for each group that has been administered a dose of product with those obtained for the control group (solvent) using a Mann and Whitney U test, with a probability p<0.05. […]

[3] = system: aggressiveness in isolated mice; experiment: Test of aggressiveness in isolated mice; assay type: in vivo, male CD mice; conditions: Mus musculus, sc; 30 minutes before test; read-out: ID50 (dose reducing by half number or duration of attacks)
Text: 2. Test of aggressiveness in isolated mice
This test allows the evaluation of the intraspecies anti-aggressive activity of a product in mice that have been kept in isolation for several months.
Animals: The test uses male CD mice (Charles River) weighing from 22 to 25 g when they arrive at the animal house. On their arrival, the animals are isolated in individual cages made of opaque black polycarbonate (23×14×13 cm) with a grill lid, and are housed for a prolonged period (approximately 6 months) in the experimentation room.
Selection of pairs of mice: The selection of aggressive pairs of mice that will be used chronically in the study commences after the animals have been isolated for one month. […]
Test: The test takes place once a week. […] The latent period (in seconds) of the first attack and the number and total duration (in seconds) of the attacks are recorded. […]
Statistical analysis: The effects of a product on aggressiveness are evaluated by comparing the number and the duration of the attacks by the pairs of mice that have received the product (treated groups) with those obtained with the pairs that have received the solvent (control group) by using a variance analysis (ANOVA) followed by a Dunnett's test, with the probability p<0.05. […]

SMILES	extrapyramidal symptoms (in words) (schizophrenia patients)	effect on dopaminergic transmission (in words) (dopamine turnover)	ED50 at 1 h [1] [mg/kg]	ED50 [2] [mg/kg]	ED50 [3] [mg/kg]
CN(C)CCCN1c2ccccc2Sc2ccc(Cl)cc21 [chlorpromazine]	often brings about the appearance of undesirable extrapyramidal symptoms (EPS) of the Parkinson's type				
O=C(CCCN1CCC(O)(c2ccc(Cl)cc2)CC1)c1ccc(F)cc1 [Haloperidol]	often brings about the appearance of undesirable extrapyramidal symptoms (EPS) of the Parkinson's type	significant effect on dopaminergic transmission in each of the regions studied	0.146		
CN1CCN(C2=Nc3cc(Cl)ccc3Nc3ccccc32)CC1 [clozapine]	cause few extrapyramidal symptoms				
c1ccc2c(c1)CC(CN1CCN(c3ccc4c(c3)OCCO4)CC1)C2 [Example 6, 4-(2,3-Dihydrobenzo-1,4-dioxin-6-yl)-1-(indan-2-ylmethyl)piperazine]			> 80	3.88	0.99
